According to ChEMBL document CHEMBL1201862, “PubChem BioAssay data set” (2004):
Activity calls are given as the source filed them.

How the values were obtained:
NADPH oxidase 1 = NADPH oxidase 1 (Homo sapiens, UniProt Q9Y5S8); type: functional, cell-based;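 further: Cell-based assay with luminescence read-out, IC50 derived from inhibitor dose-response curves; intracellular ROS from endogenous NOX1 in intact HT29 colon cancer cells; potency of inhibitors that lower the ROS luminescence signal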
[1] = test system: Streptococcus sp. 'group A'; test: growth inhibition of control SK(-) GAS strain, dose response, counter-screen for streptokinase expression inhibitor project, luminescence, kanamycin, BacTiterGlo, confirmation (AID 1900); type: functional, organism-based
cells [2] = type: functional, cell-based
[3] = Luminescence-based counterscreen assay for KLF5 inhibitors: dose response cell-based high throughput screening assay to identify cytotoxic compounds using the IEC-6 intestinal epithelial cell line. [Related pubchem assays: 1700 (Primary screen.), 1834 (Confirmation screen.), 1858 (Summary AID.), 1905 (Counterscreen.)]; type: functional
cells [4] = type: functional, cell-based; remark: listed apart in the source
Streptococcus = test: Group A Streptococcus viability loss, dose response, counter-screen for streptokinase expression inhibitor project, luminescence, BacTiterGlo (AID 1915); type: functional, organism-based;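 further: potency for reduction of bacterial viability or growth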
Nonstructural protein 1 = Nonstructural protein 1 (Influenza A virus, UniProt Q194T2); type: functional, Influenza A virus (A/California/07/2009(H1N1))
Streptokinase A = target: T1, Streptokinase A (Streptococcus pyogenes serotype M1, UniProt P10520); test: S. pyogenes streptokinase expression inhibitors, potency, dose response, plasminogen activation absorbance, OD405 (AID 1914); type: functional, Streptococcus pyogenes M1 GAS;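 further: secreted streptokinase activity via plasminogen activation per viability signal from cell pellet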
T1 sequence (P10520 whole entry): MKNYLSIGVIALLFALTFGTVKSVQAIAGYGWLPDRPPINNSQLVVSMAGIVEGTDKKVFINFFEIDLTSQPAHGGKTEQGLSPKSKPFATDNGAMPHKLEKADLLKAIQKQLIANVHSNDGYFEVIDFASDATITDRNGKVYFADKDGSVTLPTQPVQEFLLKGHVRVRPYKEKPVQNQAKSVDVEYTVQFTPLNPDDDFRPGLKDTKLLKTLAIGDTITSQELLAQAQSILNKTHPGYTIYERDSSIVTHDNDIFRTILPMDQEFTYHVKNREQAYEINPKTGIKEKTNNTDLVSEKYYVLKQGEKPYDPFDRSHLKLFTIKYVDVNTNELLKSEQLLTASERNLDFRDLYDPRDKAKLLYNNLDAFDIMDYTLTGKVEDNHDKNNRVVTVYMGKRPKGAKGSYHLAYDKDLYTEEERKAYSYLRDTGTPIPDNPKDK

[5] = inhibitors of intracellular T. cruzi replication, confirmation, NIH3T3 host cells, beta-gal luminescence (AID 2044); type: functional, cell-based;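 further: intracellular parasites grown in NIH/3T3 mouse fibroblasts as host cells; luminescent beta-galactosidase reporter signal from transgenic T. cruzi replicating inside host cells; inhibitors lower the luminescence signal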
Galanin receptor type 2 = Galanin receptor type 2 (Homo sapiens, UniProt O43603); test: Dose Response cell-based high-throughput screening assay to identify agonists of galanin receptor 2 (GALR2). [Related pubchem assays: 864 ]; type: functional
[6] = cytotoxicity toward NIH3T3 fibroblasts, dose response, counter-screen, cell-based, ATP luminescence, mouse fibroblasts (AID 2010); type: functional;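 further: cells exposed to compound for about 90 hours before reading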
INS1 = test: beta cell apoptosis inhibitors, cytokine rescue, dose response, luminescence, retest (AID 449756); type: functional, cell-based; details: Rattus norvegicus;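 further: cell death triggered by IL-1 beta plus TNF-alpha plus IFN-gamma mixture; protective hits raise ATP signal compared with cytokine alone wells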
Bcl-2-like protein 10 = target: T2, Bcl-2-like protein 10 (Homo sapiens, UniProt Q9HD36); test: Biochemical TR3 FP assay of Bcl-B inhibitor potency, EC50 (AID 1243); type: functional
T2 sequence (Q9HD36 whole entry): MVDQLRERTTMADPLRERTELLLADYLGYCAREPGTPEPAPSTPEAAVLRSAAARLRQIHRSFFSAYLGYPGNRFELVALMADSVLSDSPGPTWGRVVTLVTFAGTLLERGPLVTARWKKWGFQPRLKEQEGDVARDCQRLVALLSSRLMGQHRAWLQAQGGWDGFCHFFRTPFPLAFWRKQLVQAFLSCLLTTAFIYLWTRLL

[7] = target: Glyceraldehyde-3-phosphate dehydrogenase (Homo sapiens, UniProt P04406)
Bcl-2-related protein A1 [8] = target: T3, Bcl-2-related protein A1 (Mus musculus, UniProt Q07440); test: Bfl-1 inhibitors blocking BH3 peptide binding, confirmation, biochemical, TR-FRET, mouse Bfl-1 (AID 621);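 further: TR-FRET binding of GST-Bfl-1 to FITC-labelled Bid peptide via terbium antibody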
T3 sequence (Q07440 whole entry): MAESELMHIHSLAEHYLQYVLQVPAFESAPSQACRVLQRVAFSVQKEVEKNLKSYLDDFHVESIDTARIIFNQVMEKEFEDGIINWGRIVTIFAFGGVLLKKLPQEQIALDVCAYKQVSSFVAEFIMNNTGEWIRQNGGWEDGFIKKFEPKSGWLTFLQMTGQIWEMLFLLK

Bcl-2-related protein A1 [9] = target: T3, Bcl-2-related protein A1; test: Bfl-1 binding inhibitors, SAR follow-up, biochemical, fluorescence polarization (AID 1070)
[10] = target: T4, Nucleotide-binding oligomerization domain-containing protein 1 (Homo sapiens, UniProt Q9Y239); test: SAR analysis of compounds that inhibit NOD1 - Set 3. [Related pubchem assays (depositor defined):AID1566, AID1575, AID1578, AID1849, AID1852, AID2333, AID2335, AID2466]; type: functional
T4 sequence (Q9Y239 whole entry): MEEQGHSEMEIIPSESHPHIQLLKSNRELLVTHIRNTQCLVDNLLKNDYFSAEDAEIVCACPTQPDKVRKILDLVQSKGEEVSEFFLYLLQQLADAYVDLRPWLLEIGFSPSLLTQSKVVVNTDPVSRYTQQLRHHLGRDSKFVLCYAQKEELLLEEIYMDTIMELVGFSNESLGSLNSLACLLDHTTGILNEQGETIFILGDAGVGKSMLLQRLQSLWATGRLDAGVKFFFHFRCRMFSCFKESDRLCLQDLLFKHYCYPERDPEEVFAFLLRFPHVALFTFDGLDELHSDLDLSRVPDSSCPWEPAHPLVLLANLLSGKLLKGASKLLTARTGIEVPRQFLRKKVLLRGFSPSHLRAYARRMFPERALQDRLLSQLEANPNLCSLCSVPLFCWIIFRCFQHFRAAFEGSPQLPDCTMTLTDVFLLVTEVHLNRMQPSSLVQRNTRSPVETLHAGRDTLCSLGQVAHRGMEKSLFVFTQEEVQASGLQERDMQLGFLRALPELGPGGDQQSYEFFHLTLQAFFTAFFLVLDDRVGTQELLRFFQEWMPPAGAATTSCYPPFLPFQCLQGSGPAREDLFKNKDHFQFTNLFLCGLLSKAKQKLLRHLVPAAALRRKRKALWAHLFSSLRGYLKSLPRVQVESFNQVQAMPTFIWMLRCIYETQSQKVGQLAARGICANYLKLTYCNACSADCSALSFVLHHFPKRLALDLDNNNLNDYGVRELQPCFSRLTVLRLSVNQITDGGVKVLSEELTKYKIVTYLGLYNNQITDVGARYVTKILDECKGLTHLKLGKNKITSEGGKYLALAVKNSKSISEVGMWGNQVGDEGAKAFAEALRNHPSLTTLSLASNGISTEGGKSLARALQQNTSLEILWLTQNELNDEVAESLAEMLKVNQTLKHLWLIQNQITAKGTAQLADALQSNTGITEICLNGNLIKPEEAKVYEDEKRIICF

Tumor necrosis factor = Tumor necrosis factor (Homo sapiens, UniProt P01375); test: TNFa-triggered NF-kB activation inhibitors, SAR follow-up, cell-based, set 3 (AID 2801); type: functional
HEK293 = test: SAR analysis of compounds that are cytotoxic to HEK293 - Set 3. [Related pubchem assays (depositor defined):AID1575, AID1578, AID1848, AID1849, AID2001, AID2333, AID2334, AID2335, AID2337, AID2469]; type: functional, cell-based; details: Homo sapiens
[11] = target: Nucleotide-binding oligomerization domain-containing protein 2 (Homo sapiens, UniProt Q9HC29); test: NOD2 signaling inhibitors, analog potency, SAR follow-up, cell-based, set 3 (AID 2799); type: functional
[12] = target: Protein-tyrosine kinase 2-beta (Homo sapiens, UniProt Q14289);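 further: potency of inhibitors of PYK2 kinase phosphorylation of poly-GT substrate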
Cytochrome P450 2C19 = Cytochrome P450 2C19 (Homo sapiens, UniProt P33261); test: qHTS Assay for Inhibitors and Substrates of Cytochrome P450 2C19. [Related pubchem assays: 410 ]; type: ADME; details: read-out: Potency
[13] = Luminescent dose response cell-based high throughput screening assay for inhibitors of the Janus kinase 2 mutant JAK2V617F. [Related pubchem assays: 1446 (Primary screen.), 1521 (Confirmation assay.), 1486 (Counter screen.)]; type: functional
[14] = target: T5, Replicative DNA helicase DnaB (Mycobacterium tuberculosis, UniProt P9WMR3); test: DnaB intein splicing inhibitors, dose response, biochemical, cell-free fluorescence (AID 449749); type: functional
T5 sequence (P9WMR3 whole entry): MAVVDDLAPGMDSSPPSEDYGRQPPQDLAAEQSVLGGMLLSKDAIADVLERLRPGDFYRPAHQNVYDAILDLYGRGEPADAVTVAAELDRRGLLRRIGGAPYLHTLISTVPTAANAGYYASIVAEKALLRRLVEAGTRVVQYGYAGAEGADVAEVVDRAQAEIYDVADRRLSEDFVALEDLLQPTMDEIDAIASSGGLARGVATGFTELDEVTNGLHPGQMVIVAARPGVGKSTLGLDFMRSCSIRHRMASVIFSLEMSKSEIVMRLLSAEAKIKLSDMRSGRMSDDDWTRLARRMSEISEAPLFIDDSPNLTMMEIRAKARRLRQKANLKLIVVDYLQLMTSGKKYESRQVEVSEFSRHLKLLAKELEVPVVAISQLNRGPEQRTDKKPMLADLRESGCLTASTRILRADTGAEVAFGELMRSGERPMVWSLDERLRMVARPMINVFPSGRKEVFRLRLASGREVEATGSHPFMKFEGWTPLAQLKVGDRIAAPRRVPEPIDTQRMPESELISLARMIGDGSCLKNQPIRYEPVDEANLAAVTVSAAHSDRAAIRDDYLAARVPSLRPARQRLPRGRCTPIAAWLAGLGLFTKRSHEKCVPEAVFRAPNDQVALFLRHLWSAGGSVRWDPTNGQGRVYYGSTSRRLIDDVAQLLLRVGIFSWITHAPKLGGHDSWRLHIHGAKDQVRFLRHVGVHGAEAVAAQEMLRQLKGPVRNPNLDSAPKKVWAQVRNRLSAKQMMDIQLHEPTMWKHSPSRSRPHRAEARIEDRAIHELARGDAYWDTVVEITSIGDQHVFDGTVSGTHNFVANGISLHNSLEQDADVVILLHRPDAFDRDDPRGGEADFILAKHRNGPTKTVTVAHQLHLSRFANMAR

Protein RecA = target: T6, Protein RecA (Mycobacterium tuberculosis, UniProt P9WHJ3); test: Fluorescence Cell-Free Homogeneous Dose Retest to Identify Inhibitors of RecA-Intein Splicing Activity. [Related pubchem assays (depositor defined):AID2097, AID2223, AID489010, AID492950]; type: functional
T6 sequence (P9WHJ3 whole entry): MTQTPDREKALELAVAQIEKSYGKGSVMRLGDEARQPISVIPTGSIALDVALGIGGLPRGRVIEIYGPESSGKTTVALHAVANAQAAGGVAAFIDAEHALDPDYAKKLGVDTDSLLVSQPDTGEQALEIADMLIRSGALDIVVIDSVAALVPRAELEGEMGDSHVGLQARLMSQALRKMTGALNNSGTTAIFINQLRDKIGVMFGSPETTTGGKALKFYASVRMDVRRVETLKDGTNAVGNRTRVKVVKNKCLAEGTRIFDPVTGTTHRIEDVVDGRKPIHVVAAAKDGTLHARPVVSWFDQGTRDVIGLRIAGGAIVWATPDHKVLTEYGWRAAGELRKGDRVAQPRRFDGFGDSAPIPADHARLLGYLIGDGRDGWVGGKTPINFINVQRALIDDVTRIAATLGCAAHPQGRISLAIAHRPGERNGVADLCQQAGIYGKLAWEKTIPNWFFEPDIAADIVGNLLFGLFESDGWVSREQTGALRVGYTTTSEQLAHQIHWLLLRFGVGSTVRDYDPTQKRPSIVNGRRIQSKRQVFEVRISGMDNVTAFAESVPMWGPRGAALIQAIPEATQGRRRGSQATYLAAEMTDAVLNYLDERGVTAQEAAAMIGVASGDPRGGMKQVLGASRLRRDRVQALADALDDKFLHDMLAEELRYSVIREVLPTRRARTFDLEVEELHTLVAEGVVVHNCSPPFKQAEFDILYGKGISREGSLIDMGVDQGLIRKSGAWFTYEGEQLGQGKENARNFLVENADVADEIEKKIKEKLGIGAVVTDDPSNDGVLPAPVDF

Sequence of Glyceraldehyde-3-phosphate dehydrogenase (P04406 whole entry): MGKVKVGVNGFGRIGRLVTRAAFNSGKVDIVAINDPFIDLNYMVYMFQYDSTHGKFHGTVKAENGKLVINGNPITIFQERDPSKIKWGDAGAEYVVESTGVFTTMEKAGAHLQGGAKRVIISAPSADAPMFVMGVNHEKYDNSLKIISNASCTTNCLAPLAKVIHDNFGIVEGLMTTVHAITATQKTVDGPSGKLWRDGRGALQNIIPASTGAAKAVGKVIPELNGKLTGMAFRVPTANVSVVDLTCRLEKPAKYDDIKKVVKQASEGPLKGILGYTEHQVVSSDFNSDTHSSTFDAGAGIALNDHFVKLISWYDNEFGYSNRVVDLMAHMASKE
Sequence of Tumor necrosis factor (P01375 whole entry): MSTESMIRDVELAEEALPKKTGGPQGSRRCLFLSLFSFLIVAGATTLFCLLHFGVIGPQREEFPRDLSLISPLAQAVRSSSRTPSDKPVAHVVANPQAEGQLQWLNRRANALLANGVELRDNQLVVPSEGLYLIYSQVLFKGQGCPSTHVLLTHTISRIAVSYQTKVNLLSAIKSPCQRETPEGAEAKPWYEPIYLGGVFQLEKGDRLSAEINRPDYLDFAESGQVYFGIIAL
Sequence of Protein-tyrosine kinase 2-beta (Q14289 whole entry): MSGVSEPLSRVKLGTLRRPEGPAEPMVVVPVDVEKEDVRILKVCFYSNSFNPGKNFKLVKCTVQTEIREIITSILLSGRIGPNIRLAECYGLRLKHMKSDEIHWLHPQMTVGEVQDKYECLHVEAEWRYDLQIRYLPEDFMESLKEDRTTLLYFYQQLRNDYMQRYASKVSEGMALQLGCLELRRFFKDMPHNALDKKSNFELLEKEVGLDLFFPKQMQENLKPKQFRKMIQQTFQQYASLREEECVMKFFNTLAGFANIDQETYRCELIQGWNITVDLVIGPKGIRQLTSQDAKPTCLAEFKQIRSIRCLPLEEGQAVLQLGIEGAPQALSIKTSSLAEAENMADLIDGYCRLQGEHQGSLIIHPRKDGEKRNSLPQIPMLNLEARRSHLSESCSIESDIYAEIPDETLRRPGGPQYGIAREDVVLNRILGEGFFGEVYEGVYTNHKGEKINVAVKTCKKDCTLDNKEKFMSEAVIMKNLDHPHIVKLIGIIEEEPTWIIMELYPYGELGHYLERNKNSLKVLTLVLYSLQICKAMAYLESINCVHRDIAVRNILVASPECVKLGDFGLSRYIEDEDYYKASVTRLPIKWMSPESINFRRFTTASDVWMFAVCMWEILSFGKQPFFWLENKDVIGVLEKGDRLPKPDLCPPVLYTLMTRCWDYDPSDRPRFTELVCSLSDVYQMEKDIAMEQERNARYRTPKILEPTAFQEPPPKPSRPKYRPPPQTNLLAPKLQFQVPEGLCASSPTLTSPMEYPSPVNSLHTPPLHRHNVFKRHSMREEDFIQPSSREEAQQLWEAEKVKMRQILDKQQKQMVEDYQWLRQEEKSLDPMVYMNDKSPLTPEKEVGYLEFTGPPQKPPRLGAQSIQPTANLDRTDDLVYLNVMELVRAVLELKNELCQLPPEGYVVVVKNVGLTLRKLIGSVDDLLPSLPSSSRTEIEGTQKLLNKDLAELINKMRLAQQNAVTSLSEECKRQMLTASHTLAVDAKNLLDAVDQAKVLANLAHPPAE
Sequence of Nucleotide-binding oligomerization domain-containing protein 2 (Q9HC29 whole entry, the tested form may be a part): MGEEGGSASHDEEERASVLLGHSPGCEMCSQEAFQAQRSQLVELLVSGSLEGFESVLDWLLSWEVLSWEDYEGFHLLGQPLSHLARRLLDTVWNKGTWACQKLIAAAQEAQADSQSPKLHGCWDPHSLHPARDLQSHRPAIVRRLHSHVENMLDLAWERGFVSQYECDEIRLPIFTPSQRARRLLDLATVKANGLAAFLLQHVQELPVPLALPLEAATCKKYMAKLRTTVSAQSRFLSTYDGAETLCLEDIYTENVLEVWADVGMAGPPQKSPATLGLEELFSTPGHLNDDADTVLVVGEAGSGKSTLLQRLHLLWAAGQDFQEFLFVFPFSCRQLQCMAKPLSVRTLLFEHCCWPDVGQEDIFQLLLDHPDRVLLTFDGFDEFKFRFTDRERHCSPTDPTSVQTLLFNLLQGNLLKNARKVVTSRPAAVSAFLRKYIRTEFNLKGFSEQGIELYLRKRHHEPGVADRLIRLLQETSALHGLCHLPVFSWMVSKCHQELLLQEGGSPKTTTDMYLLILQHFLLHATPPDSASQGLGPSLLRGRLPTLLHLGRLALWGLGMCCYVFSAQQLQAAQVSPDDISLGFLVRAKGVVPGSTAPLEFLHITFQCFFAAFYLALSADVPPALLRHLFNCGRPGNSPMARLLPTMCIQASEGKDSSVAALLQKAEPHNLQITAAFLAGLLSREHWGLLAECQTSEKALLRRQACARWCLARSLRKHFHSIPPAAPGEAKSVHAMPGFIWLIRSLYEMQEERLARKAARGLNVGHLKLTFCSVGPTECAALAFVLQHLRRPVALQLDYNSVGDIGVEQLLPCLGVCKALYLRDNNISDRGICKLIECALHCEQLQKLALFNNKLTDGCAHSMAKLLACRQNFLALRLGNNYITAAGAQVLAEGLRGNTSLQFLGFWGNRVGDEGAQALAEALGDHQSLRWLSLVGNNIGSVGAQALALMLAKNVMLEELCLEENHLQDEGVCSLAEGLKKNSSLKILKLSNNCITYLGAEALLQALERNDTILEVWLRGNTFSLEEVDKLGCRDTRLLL
Sequence of Galanin receptor type 2 (O43603 whole entry): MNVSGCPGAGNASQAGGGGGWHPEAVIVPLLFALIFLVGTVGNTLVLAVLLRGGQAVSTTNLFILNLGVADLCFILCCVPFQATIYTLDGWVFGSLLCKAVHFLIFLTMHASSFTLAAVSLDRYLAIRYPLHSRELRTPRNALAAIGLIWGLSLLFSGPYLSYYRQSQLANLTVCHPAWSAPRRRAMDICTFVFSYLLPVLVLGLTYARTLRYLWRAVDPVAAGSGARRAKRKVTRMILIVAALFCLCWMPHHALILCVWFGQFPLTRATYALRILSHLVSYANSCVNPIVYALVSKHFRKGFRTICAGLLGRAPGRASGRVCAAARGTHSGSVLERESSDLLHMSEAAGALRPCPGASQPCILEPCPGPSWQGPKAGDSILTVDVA
Sequence of NADPH oxidase 1 (Q9Y5S8 whole entry): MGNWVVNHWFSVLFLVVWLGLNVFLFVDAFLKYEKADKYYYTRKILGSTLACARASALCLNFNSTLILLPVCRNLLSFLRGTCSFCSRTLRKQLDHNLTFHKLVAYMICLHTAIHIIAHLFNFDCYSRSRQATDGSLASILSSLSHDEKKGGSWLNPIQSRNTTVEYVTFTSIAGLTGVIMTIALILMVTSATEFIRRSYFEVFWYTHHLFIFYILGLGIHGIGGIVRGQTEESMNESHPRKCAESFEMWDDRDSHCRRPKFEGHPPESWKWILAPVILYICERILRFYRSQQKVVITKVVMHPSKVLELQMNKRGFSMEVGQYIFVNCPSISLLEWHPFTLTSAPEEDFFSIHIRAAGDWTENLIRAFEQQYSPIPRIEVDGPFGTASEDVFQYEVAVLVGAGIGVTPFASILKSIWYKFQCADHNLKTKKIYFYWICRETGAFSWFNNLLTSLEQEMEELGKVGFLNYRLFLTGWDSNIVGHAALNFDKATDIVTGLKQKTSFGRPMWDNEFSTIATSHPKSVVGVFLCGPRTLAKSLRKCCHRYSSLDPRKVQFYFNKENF
Sequence of Nonstructural protein 1 (Q194T2 whole entry): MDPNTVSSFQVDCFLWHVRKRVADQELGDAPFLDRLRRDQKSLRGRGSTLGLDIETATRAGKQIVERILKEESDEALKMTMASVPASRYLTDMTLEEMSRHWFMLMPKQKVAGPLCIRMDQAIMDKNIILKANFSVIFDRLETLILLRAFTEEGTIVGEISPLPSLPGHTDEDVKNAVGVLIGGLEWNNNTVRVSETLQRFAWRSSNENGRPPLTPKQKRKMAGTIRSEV
Sequence of Cytochrome P450 2C19 (P33261 whole entry): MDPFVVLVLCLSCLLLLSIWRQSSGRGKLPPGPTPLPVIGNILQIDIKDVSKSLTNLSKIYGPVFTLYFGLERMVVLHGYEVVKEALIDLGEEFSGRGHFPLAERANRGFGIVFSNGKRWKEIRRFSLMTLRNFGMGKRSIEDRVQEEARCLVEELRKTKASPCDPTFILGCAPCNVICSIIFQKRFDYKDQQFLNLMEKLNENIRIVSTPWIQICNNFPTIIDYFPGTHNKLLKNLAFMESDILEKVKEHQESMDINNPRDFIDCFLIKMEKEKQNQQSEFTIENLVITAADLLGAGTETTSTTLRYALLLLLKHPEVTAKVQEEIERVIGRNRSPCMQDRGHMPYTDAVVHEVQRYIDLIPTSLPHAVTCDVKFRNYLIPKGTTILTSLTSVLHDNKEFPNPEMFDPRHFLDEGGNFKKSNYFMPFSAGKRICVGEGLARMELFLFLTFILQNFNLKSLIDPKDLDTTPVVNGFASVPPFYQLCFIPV

SMILES: c1ccc(-c2nc(-c3ccccn3)c(-c3ccccn3)[nH]2)cc1
- IC50 (NADPH oxidase 1): > 17 µM (not active)

SMILES: O=C(N/N=C/c1cc(O)ccc1Br)c1cccnc1
- EC50 [1]: 1.85 µM (active)
- EC50 (cells [2]): 165 µM (active)
- IC50 [3]: 4.8 µM (active)
- EC50 (cells [4]): > 350 µM (not active)
- EC50 (Streptococcus): 4.86 µM (active)
- IC50 (Nonstructural protein 1): 6.35 µM (active)

SMILES: Cc1cc(C)c2nc(NNC(=O)c3ccc(S(=O)(=O)N4CCCC(C)C4)cc3)sc2c1 (centres undefined)
- EC50 [1]: 0.55 µM (active)
- EC50 (cells [2]): 8.41 µM (active)
- EC50 (Streptokinase A): > 150 µM (not active)
- EC50 [5]: 1.79 µM (active)
- EC50 (cells [4]): > 350 µM (not active)
- EC50 (Galanin receptor type 2): > 55.7 µM (not active)
- EC50 [6]: 3.22 µM (active)
- EC50 (Streptococcus): 11.5 µM (active)
- AC50 (INS1): 1.81 µM (active)

SMILES: O=C(COc1ccc(Cl)cc1Cl)Nc1nnc(-c2ccco2)s1
- EC50 (Bcl-2-like protein 10): 17 µM (active)

SMILES: Nc1cc(-c2ccc(Cl)cc2)nn1S(=O)(=O)c1c(F)c(F)c(F)c(F)c1F
- IC50 [7]: > 100 µM (not active)
- IC50 (Bcl-2-related protein A1 [8]): > 100 µM (not active)
- IC50 (Bcl-2-related protein A1 [9]): > 100 µM (not active)
- IC50 [10]: > 20 µM (inactive)
- IC50 (Tumor necrosis factor): > 20 µM (inactive)
- IC50 (HEK293): > 20 µM (inactive)
- IC50 [11]: > 20 µM (inactive)

SMILES: O=C(O)c1ccccc1OCCOCCOc1ccccc1C(=O)O
- IC50 [12]: 18.2 µM (not active)

SMILES: COc1ccc(CNc2ncnc3ccc(-c4ccccc4OC)cc23)c(OC)c1
- AC50 (Cytochrome P450 2C19): 3.98 µM (inconclusive)

SMILES: CC(C)(C)c1cc(NC(=O)CCl)n(-c2ccccc2)n1
- IC50 [13]: 1.79 µM (active)
- AC50 [14]: 65.1 µM (active)
- EC50 (Protein RecA): 13.6 µM (active)
